Experimental data published in patent US20100273167A1, “METHODS FOR DETERMINING PRENATAL ALCOHOL EXPOSURE” (priority 2009, published 2010).
Values joined by “and” are separate entries in the source; they are usually repeats but may differ in a detail not shown here. Equal entries are not always repeated. Where two headings read alike, the source gives them in different places.

What was measured:
[1] = system: Human AFSC; conditions: 48 hours
Method: Human AFSC were seeded at 3,000 cells/cm^2 and maintained in culture as described previously (De Coppi et al., Isolation of amniotic stem cell lines with potential for therapy. Nat Biotechnol. 2007; 25:100-106). AFSC were grown in α-MEM medium (Gibco, Invitrogen) containing 15% ES-FBS, 1% glutamine, and 1% penicillin/streptomycin (Gibco), supplemented with 18% Chang B and 2% Chang C (Irvine Scientific) at 37° C. with 5% CO2 atmosphere. For dose-dependent studies on cell growth and viability, AFSC were treated with 25 mM, 50 mM, 75 mM, and 100 mM ethanol (Sigma-Aldrich, St. Louis, Mo.), and sealed with parafilm with media being replaced every 24 hours.
Forty-eight hours after seeding, ethanol was added to the media and parafilm sealed to prevent evaporation. Control groups were not treated with ethanol but otherwise treated identically. Proliferation rate was determined by measuring the number of AFSC after 48 hours of various ethanol concentrations. Cell number was measured using a Coulter counter. Cell viability was determined by propidium iodine (PI) exclusion. AFSC were dissociated by 0.05% trypsin/EDTA (Gibco), centrifuged at 1,500 RPM for 5 minutes, and resuspended in 1 ml of PBS in 15 ml polypropylene tubes. 50 μl of PI, […], was added to each tube and incubated for 1 hour at room temperature. Cells were centrifuged, supernatant removed, and washed twice with a wash buffer. Samples were analyzed by flow cytometry using the FL-1 channel.

[2] = system: Human AFSC gene expression; conditions: 100 mM ethanol, 48 hours
Method: Microarray Analyses. Two microarray analyses were performed on AFSC sealed with parafilm for 48 hours with or without 100 mM of ethanol. Fragmented antisense cRNA was used for hybridizing to human U133 A arrays (Affymetrix, Inc. Santa Clara, Calif., USA) at the Core Genomic Facility of Wake Forest University School of Medicine.
Raw CEL files were provided by the Microarray Core Facility of the Wake Forest University School of Medicine and were then analyzed with a software package AffylmGUI (Affymetrix LIMMA, Linear Models for Microarray Data, Graphical User Interfaces) (Wettenhall et al., limmaGUI: a graphical user interface for linear modeling of microarray data. Bioinformatics. 2004; 20:3705-3706; Wettenhall et al., affylmGUI: a graphical user interface for linear modeling of single channel microarray data. Bioinformatics. 2006; 22:897-899). Within AffylmGUI, gene expression values were summarized with RMA. RMA adjusts for background noise, performs a quantile normalization, transforms the data into log base 2, and then summarizes the multiple probes into one intensity (Bolstad et al., A comparison of normalization methods for high density oligonucleotide array data based on variance and bias. Bioinformatics. 2003; 19:185-193; Irizarry et al., Exploration, normalization, and summaries of high density oligonucleotide array probe level data. Biostatistics. 2003; 4:249-264; Irizarry et al., Summaries of Affymetrix GeneChip probe level data. Nucleic Acids Res. 2003; 31:e15). Quantification of relative differences in gene expression among the groups of interest was accomplished using AffylmGUI, the sister package of limmaGUI (Wettenhall et al., limmaGUI: a graphical user interface for linear modeling of microarray data. Bioinformatics. 2004; 20:3705-3706; Wettenhall et al., affylmGUI: a graphical user interface for linear modeling of single channel microarray data. Bioinformatics. 2006; 22:897-899). AffylmGUI reads the raw Affymetrix CEL files directly, summarizes the gene expression values using RMA, and then uses LIMMA to identify statistically significant differences in gene expression (Smyth, Linear models and empirical bayes methods for assessing differential expression in microarray experiments. Stat Appl Genet Mol Biol. 2004; 3:Article3). LIMMA fits a linear model for every gene (like ANOVA or multiple regression analysis), and adjusts P values for multiple testings (Smyth, Linear models and empirical bayes methods for assessing differential expression in microarray experiments. Stat Appl Genet Mol Biol. 2004; 3:Article3). Differentially expressed genes were identified with a fold change >1.8.
To uncover enriched processes, data sets were analyzed by DAVID (Database for Annotation, Visualization and Integrated Discovery), a web-based tool that provides statistical methods for identifying over-represented biological themes and pathways within diverse and disparate gene lists (Dennis et al., DAVID: Database for Annotation, Visualization, and Integrated Discovery. Genome Biol. 2003; 4:3). DAVID also identifies over-represented biological themes in terms of their Gene Ontology (GO) terms and provides tools to visualize the distribution of genes on BioCarta and KFGG pathway maps. (Ashburner et al., Gene ontology: tool for the unification of biology. The Gene Ontology Consortium. Nat Genet. 2000; 25:25-29). GO provides consistent descriptions of genes in terms of biological processes and molecular function. Gene-enrichment analysis computes a modified Fisher exact p-value by comparing the ontological themes identified in our data set to total possible ontological processes present on the U133A chip.

[3] = system: osteopontin; conditions: 100 mM ethanol
Method: Total RNA was isolated from AFSC using PerfectPure RNA Cultured Cell Kit (5 Prime) in accordance with the manufacturer's protocol. Following the procedure, DNA digestion was included as recommended by the supplier to eliminate the contamination of genomic DNA. Quality of total RNA was assessed by the spectrophotometric ratio of 260/280. For the reverse-transcriptase reaction, SuperscriptII reverse transcription reagents (Invitrogen) were used. Briefly, 1 μg of RNA was converted to cDNA. PCR amplification was performed with TaqMan Universal Master Mix (Applied Biosystems). Reactions were performed in duplicate, containing 1 μl of cDNA, 1.25 μl probe, 12 μl Master Mix, 10 μl DI H20 and were analyzed in a 96-well optical reaction plate (Applied Biosystems). Reactions were amplified and quantified using an ABI 7700 sequence detectors and manufacturer's software (Applied Biosystems). On demand fluorescent probes for the following genes: β-actin and osteopontin. The threshold cycle (Ct) indicates the fractional cycle number at which the amount of amplified target reaches a defined threshold. ΔCt was obtained by subtracting the Ct values of endogenous controls (β-actin) from the Ct values of the target genes.

[4] = system: alkaline phosphatase activity in AFSC; conditions: 100 mM ethanol at day 8 (midpoint) of osteogenic differentiation for 48 hours
Method: (§1) Human AFSC were induced to differentiate into osteogenic cell types as described previously (De Coppi et al., Isolation of amniotic stem cell lines with potential for therapy. Nat Biotechnol. 2007; 25:100-106). Briefly, AFSC was cultured in DMEM low glucose with 10% FBS supplemented with 100 nM dexamethasone (Sigma-Aldrich), 10 mM beta-glycerophosphate (Sigma-Aldrich) and 0.05 mM ascorbic acid-2-phosphate (Wako Chemicals, Irving, Tex.). Cells were grown to confluency and then treated with ethanol for the first 48 hours of osteogenic differentiation to control for ethanol's antiproliferative effect. Cell number was determined after 24 and 48 hours of ethanol and bone differentiation.
Alkaline phosphatase activity was measured using p-nitrophenyl phosphate liquid substrate system (Sigma). Cells grown in 24-well plates were rinsed in PBS and incubated with 0.15% Triton X-100 for 30 mins. Two hundred uL of p-nitrophenyl phosphate solution was added to the Triton-X 100 solution. Cells were incubated in the dark for 1 hour and read spectrophotometrically at 405 nm.

[5] = system: Human AFSC
Method: as §1

[6] = system: Human AFSC; conditions: 25 mM to 100 mM ethanol
Method: Forty-eight hours after seeding, ethanol was added to the media and parafilm sealed to prevent evaporation. Control groups were not treated with ethanol but otherwise treated identically. […] Cell number was measured using a Coulter counter. Cell viability was determined by propidium iodine (PI) exclusion. AFSC were dissociated by 0.05% trypsin/EDTA (Gibco), centrifuged at 1,500 RPM for 5 minutes, and resuspended in 1 ml of PBS in 15 ml polypropylene tubes. 50 μl of PI, a nucleotide analogue, was added to each tube and incubated for 1 hour at room temperature. Cells were centrifuged, supernatant removed, and washed twice with a wash buffer. Samples were analyzed by flow cytometry using the FL-1 channel.

[7] = over a period of 24 hours, parafilm sealed
[8] = system: c-kit; conditions: in vitro alcohol exposure of AFSC

ethanol concentration present in the culture media [7]: did not change
SMILES: CCO [ethanol]
reduction in proliferation rate ([1]; 25 mM ethanol, relative to cells without ethanol): 22%
reduction in the rate of proliferation ([1]; 100 mM ethanol, relative to cells without ethanol): 33%
effect on rate of proliferation ([1]; 25-100 mM ethanol): dose-dependent reduction in the rate of proliferation
Basic fibroblast growth factor/FGF2 expression fold change ([2]; growth media): −2.0 fold change
number of genes down-regulated in response to ethanol ([2]; growth media): 16 genes
number of genes up-regulated in response to ethanol ([2]; growth media): 65 genes
Count of down-regulated genes: anatomical structure development ([2]; gene ontology category): 6
Count of down-regulated genes: circulatory system process ([2]; gene ontology category): 3
Count of down-regulated genes: embryonic development ([2]; gene ontology category): 3
Count of down-regulated genes: glucose transport ([2]; gene ontology category): 2
Count of down-regulated genes: multi-organism process ([2]; gene ontology category): 3
Count of down-regulated genes: negative regulation of cellular process ([2]; gene ontology category): 6
Count of down-regulated genes: regulation of biological quality ([2]; gene ontology category): 4
Count of up-regulated genes: IGF receptor signaling pathway ([2]; gene ontology category): 2
Count of up-regulated genes: biomineral & ossification ([2]; gene ontology category): 5
Count of up-regulated genes: blood vessel morphogenesis ([2]; gene ontology category): 4
Count of up-regulated genes: developmental process ([2]; gene ontology category): 17
Count of up-regulated genes: organ development ([2]; gene ontology category): 12
Count of up-regulated genes: organ morphogenesis ([2]; gene ontology category): 7
Count of up-regulated genes: reproductive developmental process ([2]; gene ontology category): 4
Count of up-regulated genes: skeletal development ([2]; gene ontology category): 5
Count of up-regulated genes: system development ([2]; gene ontology category): 13
Count of up-regulated genes: tyrosine kinase signaling pathway ([2]; gene ontology category): 4
increase in mRNA expression of osteopontin ([3]; 24 hours, growth media, vs control AFSC): 2.2 fold
increase in mRNA expression of osteopontin ([3]; 24 hours, osteogenic media): 2 fold
increase in mRNA expression of osteopontin ([3]; 48 hours, growth media, vs control AFSC): 2.8 fold change
effect on alkaline phosphatase activity [4]: no statistically significant effect on alkaline phosphatase activity
calcium deposition ([5]; 100 mM ethanol during first 48 hours of osteogenic differentiation, day 23, non-exposed AFSC 77.40±26.85): 155.06 ± 75.85 µg/mL and 155.1 ± 75.8 µg/mL
effect on cell number ([5]; cells grown to confluency, 24 and 48 hours of ethanol and bone differentiation (data not shown)): no effect on cell number
effect on cell viability [6]: did not have a significant effect on cell viability
effect on c-kit expression [8]: does not appear to affect c-kit expression
